Test results taken from patent publication US9783509B2, “Six-membered C-N-linked aryl sulfide derivatives and aryl sulfoxide derivatives as pest conrol agents” (BAYER CROPSCIENCE AKTIENGESELLSCHAFT, priority 2013, dated 2017).
Read-outs that look alike come from different tables or passages of the source.

Legend:
[1] = log P by reversed-phase HPLC analogously to OECD Guideline 117; type: physicochemical
Method: The log P values were determined analogously to OECD Guideline 117 (EC Directive 92/69/EEC) by HPLC (high-performance liquid chromatography) using reversed-phase columns (C 18), by the following methods:
[a] LC-MS determination in the acidic range is effected at pH 2.7 with 0.1% aqueous formic acid and acetonitrile (containing 0.1% formic acid) as eluents with a linear gradient from 10% acetonitrile to 95% acetonitrile; or with 0.025% aqueous trifluoroacetic acid and acetonitrile (containing 0.025% trifluoroacetic acid) as eluents with a linear gradient from 50% acetonitrile to 80% acetonitrile.
[b] LC-MS determination in the neutral range is effected at pH 7.8 with 0.001 molar aqueous ammonium hydrogencarbonate solution and acetonitrile as eluents; linear gradient from 10% acetonitrile to 95% acetonitrile.
Calibration is effected with solutions of a homologous series of unbranched alkan-2-ones (having 3 to 16 carbon atoms) with known log P values (log P values determined on the basis of the retention times by linear interpolation between two successive alkanones).

[2] = tested on: greenhouse red spider mite (Tetranychus urticae); test: Tetranychus urticae spray test, OP-resistant (bean leaf discs); type: in vivo; details: after 6 days; for pest or weed control at 500 g/ha: Tetranychus urticae, foliar, 144 h, read-out: efficacy (spider mites killed)
Method: Tetranychus urticae—Spray Test, OP-Resistant
Solvent: 78.0 parts by weight of acetone • • 1.5 parts by weight of dimethylformamide
Emulsifier: alkylaryl polyglycol ether
To produce an appropriate active ingredient formulation, 1 part by weight of active ingredient is dissolved using the specified parts by weight of solvent and made up with water containing an emulsifier concentration of 1000 ppm until the desired concentration is attained. To produce further test concentrations, the preparation is diluted with emulsifier-containing water.
Discs of bean leaves (Phaseolus vulgaris) infested by all stages of the greenhouse red spider mite (Tetranychus urticae) are sprayed with an active ingredient formulation of the desired concentration.
After 6 days, the efficacy in % is determined. 100% means that all the spider mites have been killed; 0% means that none of the spider mites have been killed.

[3] = [a] acidic range, pH 2.7, formic acid (or trifluoroacetic acid)/acetonitrile
[4] = [b] neutral range, pH 7.8, ammonium hydrogencarbonate/acetonitrile
[5] = reversed-phase C18 HPLC column, pH 2.7, table column, [a] acidic range, pH 2.7, formic acid (or trifluoroacetic acid)/acetonitrile, read-out: LogP[a]
[6] = reversed-phase C18 HPLC column, pH 7.8, table column, [b] neutral range, pH 7.8, ammonium hydrogencarbonate/acetonitrile, read-out: LogP[b]
[7] = reversed-phase C18 HPLC column, pH 2.7, running text, [a] acidic range, pH 2.7, read-out: log P[a]
[8] = reversed-phase C18 HPLC column, pH 7.8, running text, [b] neutral range, pH 7.8, read-out: log P[b]
[9] = reversed-phase C18 HPLC column, pH 2.7, running text, HCOOH, read-out: log P(HCOOH)

Compound | efficacy (spider mites killed) ([2]; application rate 500 g/ha) | LogP[a] [1, 3] | LogP[b] [1, 4] | further results
1-{2,4-Diethyl-5-[(2,2,2-trifluoroethyl)sulphinyl]phenyl}-6-methyl-2,4-dioxo-1,2,3,4-tetrahydropyrimidine-5-carbonitrile |  |  |  | log P[a] ([1]; pH 2.7): 3.16
Cn1c(=O)cnn(-c2cc([S+]([O-])CC(F)(F)F)c(Cl)cc2Cl)c1=O (racemic) [compound 13] | 90% | 2.48 |  | 
Cc1ccc(-n2ncc(=O)n(C)c2=O)cc1[S+]([O-])CC(F)(F)F (racemic) [compound 24] | 100% | 1.84 | 1.83 | 
CCn1c(=O)cnn(-c2cc([S+]([O-])CC(F)(F)F)c(C)cc2C)c1=O (racemic) [compound 35] | 100% | 2.31 | 2.27 | 
Cc1cc(C)c([S+]([O-])CC(F)(F)F)cc1-n1ncc(=O)n(CC2CC2)c1=O (racemic) [compound 37] | 100% | 2.77 | 2.73 | 
Cc1cc(C)c([S+]([O-])CC(F)(F)F)cc1-n1ncc(=O)n(C(C)C)c1=O (racemic) [compound 38] | 100% | 2.69 | 2.67 | 
Cc1cc(C)c([S+]([O-])CC(F)(F)F)cc1-n1ncc(=O)n(Cc2ccccc2)c1=O (racemic) [compound 52] |  | 3.06 | 3.00 | efficacy (spider mites killed) ([2]; application rate 100 g/ha): 90%
Cc1cc(C)c([S+]([O-])CC(F)(F)F)cc1-n1ncc(=O)n(CC(F)(F)F)c1=O (single isomer, unassigned) [compound 46] |  | 2.72 | 2.66 | 
Cc1cc(F)c(-n2ncc(=O)n(CC(F)(F)F)c2=O)cc1[S+]([O-])CC(F)(F)F (single isomer, unassigned) [compound 51] |  | 2.62 | 2.57 | 
Cc1cc(F)c(-n2ncc(=O)n(C)c2=O)cc1[S+]([O-])CC(F)(F)F (single isomer, unassigned; (-)) [Ex. No. 28, (−)-2-[2-fluoro-4-methyl-5-(2,2,2-trifluoroethylsulphinyl)phenyl]-4-methyl-1,2,4-triazine-3,5-dione] |  |  |  | chromatographic logP [1, 5]: 1.95; chromatographic logP [1, 6]: 1.9
Cc1cc(F)c(-n2ncc(=O)[nH]c2=O)cc1SCC(F)(F)F [2-{2-Fluoro-4-methyl-5-[(2,2,2-trifluoroethyl)sulphanyl]phenyl}-1,2,4-triazine-3,5(2H,4H)-dione] |  |  |  | chromatographic logP [1, 7]: 2.45
Cc1cc(F)c(-n2nc(C(=O)O)c(=O)[nH]c2=O)cc1SCC(F)(F)F [2-{2-Fluoro-4-methyl-5-[(2,2,2-trifluoroethyl)sulphanyl]phenyl}-3,5-dioxo-2,3,4,5-tetrahydro-1,2,4-triazine-6-carboxylic acid] |  |  |  | chromatographic logP [1, 7]: 1.79
CCO/C=C/C(=O)NC(=O)Nc1cc(SCC(F)(F)F)c(C)cc1F [(2E)-3-Ethoxy-N-({2-fluoro-4-methyl-5-[(2,2,2-trifluoroethyl)sulphanyl]phenyl}carbamoyl)-acrylamide] |  |  |  | chromatographic logP [1, 7]: 3.78; chromatographic logP [1, 8]: 3.7
CCOC(=O)c1cn(-c2cc(SCC(F)(F)F)c(C)cc2F)c(=O)n(C2CC2)c1=O [Ethyl 3-cyclopropyl-1-{2-fluoro-4-methyl-5-[(2,2,2-trifluoroethyl)sulphanyl]phenyl}-2,4-dioxo-1,2,3,4-tetrahydropyrimidine-5-carboxylate] |  |  |  | chromatographic logP [1, 7]: 3.07; chromatographic logP [1, 8]: 3.02
CCOC(=O)NC(=O)c1nn(-c2cc(SCC(F)(F)F)c(C)cc2F)c(=O)[nH]c1=O [Ethyl [(2-{2-fluoro-4-methyl-5-[(2,2,2-trifluoroethyl)sulphanyl]phenyl}-3,5-dioxo-2,3,4,5-tetrahydro-1,2,4-triazin-6-yl)carbonyl]arbamate] |  |  |  | chromatographic logP ([1]; [a] acidic range, pH 2.7, read-out: log P[a]): 2.5
Cc1cc(F)c(-n2ncc(=O)[nH]c2=O)cc1[S+]([O-])CC(F)(F)F (stereo not drawn) [Ex. No. 1, 2-{2-Fluoro-4-methyl-5-[(2,2,2-trifluoroethyl)sulphinyl]phenyl}-1,2,4-triazine-3,5(2H,4H)-dione] |  |  |  | chromatographic logP [1, 7]: 1.58; chromatographic logP [1, 5]: 1.58
Cc1cc(C)c(-n2ncc(=O)n(C)c2=O)cc1SCC(F)(F)F [Ex. No. 5] | 100% | 3.08 |  | 

Compound | efficacy (spider mites killed) ([2]; application rate 500 g/ha) | LogP[a] [1, 3] | LogP[b] [1, 4] | further results
Cc1cc(C)c(-n2ncc(=O)n(CC(F)(F)F)c2=O)cc1SCC(F)(F)F [Ex. No. 7] | 90% | 3.74 |  | 
Cc1cc(F)c(-n2c(C)c(C#N)c(=O)[nH]c2=O)cc1[S+]([O-])CC(F)(F)F (stereo not drawn) [Ex. No. 16, 1-{2-Fluoro-4-methyl-5-[(2,2,2-trifluoroethyl)sulphinyl]phenyl}-6-methyl-2,4-dioxo-1,2,3,4-tetrahydropyrimidine-5-carbonitrile] |  |  |  | pest or weed control at 500 g/ha ([2]; application rate 500 g/ha): 90%; chromatographic logP [1, 5]: 1.58; chromatographic logP [1, 6]: 0.88
Cc1cc(F)c(-n2c(C)c(C#N)c(=O)[nH]c2=O)cc1SCC(F)(F)F [Ex. No. 17, 1-{2-Fluoro-4-methyl-5-[(2,2,2-trifluoroethyl)sulphanyl]phenyl}-6-methyl-2,4-dioxo-1,2,3,4-tetrahydropyrimidine-5-carbonitrile] |  |  |  | pest or weed control at 500 g/ha ([2]; application rate 500 g/ha): 90%; chromatographic logP [1, 7]: 2.43; chromatographic logP [1, 5]: 2.43
CCc1cc(CC)c([S+]([O-])CC(F)(F)F)cc1-n1c(C)c(C#N)c(=O)[nH]c1=O (stereo not drawn) [Ex. No. 18, 1-{2,4-Diethyl-5-[(2,2,2-trifluoroethyl)sulphinyl]phenyl}-6-methyl-2,4-dioxo-1,2,3,4-tetrahydropyrimidine-5-carbonitrile] |  |  |  | pest or weed control at 500 g/ha ([2]; application rate 500 g/ha): 90%; chromatographic logP [1, 7]: 2.15; chromatographic logP [1, 5]: 2.15; chromatographic logP [1, 8]: 1.55; chromatographic logP [1, 6]: 1.55
Cc1cc(F)c(-n2ccc(=O)[nH]c2=O)cc1SCC(F)(F)F [Ex. No. 55, 1-{2-Fluoro-4-methyl-5-[(2,2,2-trifluoroethyl)sulphanyl]phenyl}pyrimidine-2,4(1H,3H)-dione] |  |  |  | pest or weed control at 500 g/ha ([2]; application rate 500 g/ha): 100%; chromatographic logP [1, 7]: 2.13; chromatographic logP [1, 5]: 2.06; chromatographic logP [1, 8]: 2.06; chromatographic logP [1, 6]: 2.13
CCc1cc(CC)c(SSc2cc(NC(C)=O)c(CC)cc2CC)cc1NC(C)=O [N,N′-[Disulphanediylbis(4,6-diethylbenzene-3,1-diyl)]diacetamide] |  |  |  | chromatographic logP [1, 9]: 4.02
CCc1cc(CC)c(SCC(F)(F)F)cc1NC(C)=O [N-{2,4-Diethyl-5-[(2,2,2-trifluoroethyl)sulphanyl]phenyl}acetamide] |  |  |  | chromatographic logP [1, 9]: 3.07
Cc1ccc(-n2ncc(=O)n(C)c2=O)cc1SCC(F)(F)F [compound 23] | 100% | 2.9 | 2.83 | 
Cc1cc(F)c(-n2ncc(=O)n(C(C)C)c2=O)cc1SCC(F)(F)F [compound 26] | 100% | 3.73 | 3.67 | 
CCn1c(=O)cnn(-c2cc(SCC(F)(F)F)c(C)cc2C)c1=O [compound 33] | 100% | 3.45 | 3.38 | 
Cc1cc(C)c(-n2ncc(=O)n(CC3CC3)c2=O)cc1SCC(F)(F)F [compound 34] | 100% | 3.94 | 3.87 | 
Cc1cc(C)c(-n2ncc(=O)n(C(C)C)c2=O)cc1SCC(F)(F)F [compound 36] | 100% | 3.88 | 3.81 | 
Cc1cc(C)c(-n2ncc(=O)n(CC#N)c2=O)cc1SCC(F)(F)F [compound 40] | 100% | 3.1 | 3.05 | 
Cc1cc(C)c(-n2ncc(=O)n(CC(C)C)c2=O)cc1SCC(F)(F)F [compound 41] | 90% | 4.18 | 4.1 | 
Cc1cc(F)c(-n2ncc(=O)n(Cc3ccccc3)c2=O)cc1SCC(F)(F)F [compound 42] | 100% | 4.04 | 3.93 | 
CCCn1c(=O)ccn(-c2cc([S+]([O-])CC(F)(F)F)c(C)cc2F)c1=O (stereo not drawn) [compound 66] | 90% | 2.17 | 2.25 | 
CCn1c(=O)ccn(-c2ccc(C)c(SCC(F)(F)F)c2)c1=O [compound 83] |  | 2.74 | 2.81 | 
